{
  "source": "patent US11077163B2",
  "about": "“Peptide for treating ocular diseases and composition for treating ocular diseases comprising same” (GemVax & KAEL CO., LTD., priority 2015, dated 2021)",
  "type_in_all_cases": "in vivo, Brown Norway rats",
  "key": {"[1]": {"tested_on": "laser-induced choroidal neovascularization (CNV)", "assay": "CNV thickness by optical coherence tomography (OCT) in laser-induced CNV animal model", "conditions": "subcutaneous once a day", "text": "Brown Norway rats were anesthetized, and pupils of the eyes were dilated using 0.5% phenylephrine (pupillary dilatation). The target rats having the dilated pupils of the eyes were irradiated with a 577 nm laser (577 nm, diode, 10 μm, 0.05 seconds) 6 to 8 times per eye to cause neovascularization in the choroid. Upon laser irradiation, the eyes were covered with a cover glass, and the rupture of Bruch's membranes was confirmed from the fact that bubbles occurred during irradiation with lasers using a slit lamp delivery system. In a laser-induced CNV […] model, the rats were randomized to experimental groups in which the peptide pep1 prepared by the method disclosed in Example 1 was administered at three doses of 0.1, 1, and 10 nM, and the control (vehicle) in which pep1 was not administered, and a drug was subcutaneously administered to the rats once a day for a period of time starting from the day before 3 days of laser irradiation to 2 weeks after the laser irradiation. To compare the CNV activities between various groups, a Kruskal-Wallis test was used. […] The groups in which pep1 was administered and the control complied with the experimental groups disclosed in Example 2, and the thicknesses of all lesions in each of the groups were measured to check whether there was a difference in CNV thicknesses between the groups."}, "[2]": {"tested_on": "laser-induced choroidal neovascularization (CNV)", "assay": "CNV area by isolectin staining of retinal pigment epithelium-choroid-sclera tissues in laser-induced CNV animal model", "conditions": "subcutaneous once a day, isolectin-stained area at 2 weeks after laser", "text": "Brown Norway rats were anesthetized, and pupils of the eyes were dilated using 0.5% phenylephrine (pupillary dilatation). The target rats having the dilated pupils of the eyes were irradiated with a 577 nm laser (577 nm, diode, 10 μm, 0.05 seconds) 6 to 8 times per eye to cause neovascularization in the choroid. Upon laser irradiation, the eyes were covered with a cover glass, and the rupture of Bruch's membranes was confirmed from the fact that bubbles occurred during irradiation with lasers using a slit lamp delivery system. […] An area of tissues stained with isolectin specific to vascular endothelial cells was measured to determine CNV areas in the control and the groups in which pep1 was administered. The groups in which pep1 was administered and the control complied with the experimental groups disclosed in Example 2, and the thicknesses of all lesions in each of the groups were measured to check whether there was a difference in CNV areas between the groups."}, "[3]": {"tested_on": "laser-induced choroidal neovascularization (CNV)", "assay": "Angiographic leakage in the choroid by fluorescein angiography (FAG) in laser-induced CNV animal model", "conditions": "subcutaneous once a day, FAG at 2 weeks after laser", "text": "Brown Norway rats were anesthetized, and pupils of the eyes were dilated using 0.5% phenylephrine (pupillary dilatation). The target rats having the dilated pupils of the eyes were irradiated with a 577 nm laser (577 nm, diode, 10 μm, 0.05 seconds) 6 to 8 times per eye to cause neovascularization in the choroid. Upon laser irradiation, the eyes were covered with a cover glass, and the rupture of Bruch's membranes was confirmed from the fact that bubbles occurred during irradiation with lasers using a slit lamp delivery system. In a laser-induced CNV […] model, the rats were randomized to experimental groups in which the peptide pep1 prepared by the method disclosed in Example 1 was administered at three doses of 0.1, 1, and 10 nM, and the control (vehicle) in which pep1 was not administered, and a drug was subcutaneously administered to the rats once a day for a period of time starting from the day before 3 days of laser irradiation to 2 weeks after the laser irradiation. To compare the CNV activities between various groups, a Kruskal-Wallis test was used. In this case, the comparison between two groups was performed using a Mann-Whitney U test. A p value was considered to be statistically significant when the p value was less than 0.05. After CNV was induced with lasers, the rats in the groups in which pep1 was administered and the rats in the control were anesthetized after the elapse of 2 weeks, and a contrast medium was intraperitoneally injected at a dose of 0.1 mL (10% fluorescein disodium salt). Levels of angiographic leakage in the choroid between the control and the groups in which pep1 was administered were compared using fluorescein angiography (FAG). The groups in which pep1 was administered and the control complied with the experimental groups disclosed in Example 2, and the leakage levels at all lesions in each of the groups were measured to check whether there was a difference in angiographic leakage in the choroid between the groups. […]"}},
  "data": [
    {"sequence": "EARPALLTSRLRFIPK (listed as Homo sapiens) [pep1, telomerase-derived peptide of 16 amino acids, location [611-626] on human telomerase]", "values": [
      {"measurement": "CNV thickness compared to the control", "setting": "[1]; all groups 0.1, 1 and 10 nM, from 3 days before to 2 weeks after laser irradiation, OCT at 2 weeks", "value": "statistically significantly reduced"},
      {"measurement": "CNV thickness compared to the control", "setting": "[1]; group at 1 nM, OCT at 2 weeks after laser", "value": "most drastically reduced"},
      {"measurement": "CNV area compared to the control", "setting": "[2]; all groups 0.1, 1 and 10 nM", "value": "statistically significantly reduced"},
      {"measurement": "CNV area compared to the control", "setting": "[2]; group at 1 nM", "value": "most drastically reduced"},
      {"measurement": "angiographic leakage level compared to the control", "setting": "[3]; all groups 0.1, 1 and 10 nM", "value": "reduced"},
      {"measurement": "ratio of lesions with Grade 2B (clinically severe leakage level) compared to the control", "setting": "[3]; all groups 0.1, 1 and 10 nM", "value": "reduced"},
      {"measurement": "ratio of lesions with Grade 2B (clinically severe leakage level) compared to the control", "setting": "[3]; groups at 1 and 10 nM", "value": "drastically reduced"}
    ]}
  ]
}
